Reference: PubChem BioAssay AID2060483 (Molecular Pharmacology Branch, DTP, NCI, 2025)

System: K24384-001-R-PDC complex spheroids, viability
Experiment: Anticancer human tumor K24384-001-R-PDC patient-derived pancreatic adenocarcinoma cell line growth inhibition [GQUAD]
Details: for IC50: curve of first compound; for viability, T/C: stronger effect = lower value
Description: DNA G-quadruplex Stabilizer Agents in Combinations in Complex Spheroids
A high-throughput screen of multi-cell type tumor spheroids was designed to identify active combinations of DNA G-quadruplex stabilizer agents and targeted small molecules. Complex spheroids include a stromal component modeled by human endothelial cells (HUVEC) and fibroblasts modeled by human mesenchymal stem cells (MSCs). The concentration ranges selected for each drug and investigational agent were based upon clinically achievable concentrations if the clinical Cmax of the agent was known.
Compounds. The drugs and investigational agents: pidnarulex (CX-5461; NSC782164), APTO-253 (NSC789042), BRACO-19 (NSC847499), peposertib (NSC802822), ceralasertib (NSC780249), elimusertib (NSC800525), camonsertib (NSC841442), AZD-1390 (NSC803789), olaparib (NSC753686), talazoparib (NSC767125), ART-558 (NSC835418), sotorasib (NSC818433), MRTX-1133 (NSC836407), SN-38 (NSC673596), topotecan (NSC609699), etoposide (NSC141540), doxorubicin (NSC123127), gemcitabine (NSC613327), 5-fluorouracil (NSC19893), paclitaxel (NSC125973), vemurafenib (NSC761431), panobinostat (NSC761190), R-306465 (JNJ-16241199; NSC773264), adavosertib (NSC754352), TP-3654 (NSC805149), carboplatin (NSC241240), KSQ-4279 (NSC840948), and staurosporine (NSC755774) were obtained from the National Cancer Institute (NCI) Developmental Therapeutics Program Chemical Repository (34). The FDA-approved anticancer drug set is available from the NCI Developmental Therapeutics Program. […] The stock solutions were prepared in dimethyl sulfoxide (DMSO, Sigma-Aldrich, St. Louis, MO, cat. D2650) at 800-fold the tested concentration and stored at -70 degrees C prior to their use. All drugs and investigational agents were tested over a range starting from a high concentration at or near the clinical Cmax and decreasing in half-log increments. If the clinical Cmax for an agent had not been determined, the highest concentration tested was 10 microM.
2.3 Cell Culture. All cells were maintained in an incubator at 37 degrees C and 5% CO2 with 95% humidity. The PDC lines were cultured according to standard operating procedures established by the NCI PDMR. All PDCs were thawed and cultured in Matrigel-coated flasks prepared with a working solution of 1X Ham's F-12 nutrient mix, without supplementation (Invitrogen, cat. 11765054), 100 U/mL penicillin-streptomycin (Invitrogen, cat. 15140122), and 2.5% Matrigel (Corning Inc., cat. 354248) for the first three passages. The 857933-349-R-J2-PDC line was cultured in 6C/Colon 1B media, which includes advanced DMEM/F-12 (Thermo Fisher Scientific, cat. 12634028), 10 mM HEPES (Thermo Fisher Scientific, cat. 15630080), 1X GlutaMAX supplement (Thermo Fisher Scientific, cat. 35050061), 0.1 mg/mL primocin (InvivoGen, cat. ant-pm-2), 10% defined fetal bovine serum, heat inactivated (HyClone Laboratories Inc., cat. SH30070.03HI), 50% L-WRN conditioned media (ATCC, cat. CRL-3276), 1.25 mM N-Acetyl-L-cysteine (Sigma-Aldrich, cat. A9165), 10 mM nicotinamide (Sigma-Aldrich, cat. N0636), 1X B-27 supplement (Thermo Fisher Scientific, cat. 17504044), 1X N-2 supplement (Thermo Fisher Scientific, cat. 17502048), 10 microM Y-27632 dihydrochloride (Tocris Bioscience, cat. 1254), and 50 ng/mL human EGF recombinant protein (Thermo Fisher Scientific, cat. PHG0311). The 485176-168-R4-J1-PDC line was cultured in Panc media, which includes all 6C/Colon 1B media components plus 100 ng/mL human FGF-10 (Thermo Fisher Scientific, cat. 100-26), 500 nM SB-431542 (Selleckchem, cat. S1067), and gastrin (Tocris, cat. 3006).
[…]

[1] = second compound 0.0316 µM, first compound 0.0316 µM
[2] = second compound 0.0316 µM, first compound 0.1 µM
[3] = second compound 0.0316 µM, first compound 0.316 µM
[4] = second compound 0.0316 µM, first compound 1 µM
[5] = second compound 0.0316 µM, first compound 3.16 µM
[6] = second compound 0.0316 µM, first compound 10 µM
[7] = second compound 0.1 µM, first compound 0.0316 µM
[8] = second compound 0.1 µM, first compound 0.1 µM
[9] = second compound 0.1 µM, first compound 0.316 µM
[10] = second compound 0.1 µM, first compound 1 µM
[11] = second compound 0.1 µM, first compound 3.16 µM
[12] = second compound 0.1 µM, first compound 10 µM
[13] = second compound 0.316 µM, first compound 0.0316 µM
[14] = second compound 0.316 µM, first compound 0.1 µM
[15] = second compound 0.316 µM, first compound 0.316 µM
[16] = second compound 0.316 µM, first compound 1 µM
[17] = second compound 0.316 µM, first compound 3.16 µM
[18] = second compound 0.316 µM, first compound 10 µM
[19] = second compound 1 µM, first compound 0.0316 µM
[20] = second compound 1 µM, first compound 0.1 µM
[21] = second compound 1 µM, first compound 0.316 µM
[22] = second compound 1 µM, first compound 1 µM
[23] = second compound 1 µM, first compound 3.16 µM
[24] = second compound 1 µM, first compound 10 µM
[25] = second compound 3.16 µM, first compound 0.0316 µM
[26] = second compound 3.16 µM, first compound 0.1 µM
[27] = second compound 3.16 µM, first compound 0.316 µM
[28] = second compound 3.16 µM, first compound 1 µM
[29] = second compound 3.16 µM, first compound 3.16 µM
[30] = second compound 3.16 µM, first compound 10 µM
[31] = second compound 10 µM, first compound 0.0316 µM
[32] = second compound 10 µM, first compound 0.1 µM
[33] = second compound 10 µM, first compound 0.316 µM
[34] = second compound 10 µM, first compound 1 µM
[35] = second compound 10 µM, first compound 3.16 µM
[36] = second compound 10 µM, first compound 10 µM
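Also: spheroids exposed to compounds for seven days.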

## CC1COCCN1c1cc(C2(S(C)(=N)=O)CC2)nc(-c2ccnc3[nH]ccc23)n1 (stereo unspecified) + CN(C)c1ccc(Nc2c3ccc(NC(=O)CCN4CCCC4)cc3nc3cc(NC(=O)CCN4CCCC4)ccc23)cc1
Second compound 0.0316 µM
  IC50: 1530 nM
Second compound 0.1 µM
  IC50: 1600 nM
Second compound 0.316 µM
  IC50: 1710 nM
Second compound 1 µM
  IC50: 1700 nM
Second compound 3.16 µM
  IC50: 1680 nM
Second compound 10 µM
  IC50: 1700 nM
[1]
  viability, T/C: 95.2%
[2]
  viability, T/C: 90.1%
[3]
  viability, T/C: 113%
[4]
  viability, T/C: 64.1%
[5]
  viability, T/C: 28.2%
[6]
  viability, T/C: 24.2%
[7]
  viability, T/C: 90.3%
[8]
  viability, T/C: 115%
[9]
  viability, T/C: 84.4%
[10]
  viability, T/C: 60.9%
[11]
  viability, T/C: 36.4%
[12]
  viability, T/C: 23.2%
[13]
  viability, T/C: 83.3%
[14]
  viability, T/C: 92.9%
[15]
  viability, T/C: 86.1%
[16]
  viability, T/C: 56.9%
[17]
  viability, T/C: 42.2%
[18]
  viability, T/C: 26.1%
[19]
  viability, T/C: 86.5%
[20]
  viability, T/C: 104%
[21]
  viability, T/C: 86.2%
[22]
  viability, T/C: 62.2%
[23]
  viability, T/C: 35.9%
[24]
  viability, T/C: 32.1%
[25]
  viability, T/C: 90.2%
[26]
  viability, T/C: 98.6%
[27]
  viability, T/C: 99.3%
[28]
  viability, T/C: 60.8%
[29]
  viability, T/C: 39.6%
[30]
  viability, T/C: 23.4%
[31]
  viability, T/C: 91.6%
[32]
  viability, T/C: 102%
[33]
  viability, T/C: 86.9%
[34]
  viability, T/C: 62.9%
[35]
  viability, T/C: 35.4%
[36]
  viability, T/C: 28.2%

## COc1ccc([C@@H](O)c2cc(-c3ncnc4cc(N5CCOCC5)ccc34)c(F)cc2Cl)nn1 + CN(C)c1ccc(Nc2c3ccc(NC(=O)CCN4CCCC4)cc3nc3cc(NC(=O)CCN4CCCC4)ccc23)cc1
Second compound 0.0316 µM
  IC50: 2100 nM
Second compound 0.1 µM
  IC50: 2600 nM
Second compound 0.316 µM
  IC50: 1610 nM
Second compound 1 µM
  IC50: 1930 nM
Second compound 3.16 µM
  IC50: 2540 nM
Second compound 10 µM
  IC50: 1080 nM
[1]
  viability, T/C: 98.6%
[2]
  viability, T/C: 86.4%
[3]
  viability, T/C: 81.2%
[4]
  viability, T/C: 58.7%
[5]
  viability, T/C: 44.3%
[6]
  viability, T/C: 36.5%
[7]
  viability, T/C: 89.5%
[8]
  viability, T/C: 96.5%
[9]
  viability, T/C: 102%
[10]
  viability, T/C: 76.6%
[11]
  viability, T/C: 45.9%
[12]
  viability, T/C: 34.9%
[13]
  viability, T/C: 91.4%
[14]
  viability, T/C: 109%
[15]
  viability, T/C: 83.8%
[16]
  viability, T/C: 56.8%
[17]
  viability, T/C: 42.5%
[18]
  viability, T/C: 25.8%
[19]
  viability, T/C: 82.1%
[20]
  viability, T/C: 83.1%
[21]
  viability, T/C: 84.8%
[22]
  viability, T/C: 62.4%
[23]
  viability, T/C: 40.3%
[24]
  viability, T/C: 23.4%
[25]
  viability, T/C: 91.9%
[26]
  viability, T/C: 95.4%
[27]
  viability, T/C: 72.2%
[28]
  viability, T/C: 75.5%
[29]
  viability, T/C: 42.4%
[30]
  viability, T/C: 22.5%
[31]
  viability, T/C: 67.3%
[32]
  viability, T/C: 73.6%
[33]
  viability, T/C: 72.3%
[34]
  viability, T/C: 44.3%
[35]
  viability, T/C: 34.3%
[36]
  viability, T/C: 12.3%

## O=C(c1cc(Cc2n[nH]c(=O)c3ccccc23)ccc1F)N1CCN(C(=O)C2CC2)CC1 + CN(C)c1ccc(Nc2c3ccc(NC(=O)CCN4CCCC4)cc3nc3cc(NC(=O)CCN4CCCC4)ccc23)cc1
Second compound 0.0316 µM
  IC50: > 10000 nM
Second compound 0.1 µM
  IC50: > 10000 nM
Second compound 0.316 µM
  IC50: > 10000 nM
Second compound 1 µM
  IC50: > 10000 nM
Second compound 3.16 µM
  IC50: > 10000 nM
Second compound 10 µM
  IC50: > 10000 nM
[1]
  viability, T/C: 91.5%
[2]
  viability, T/C: 87.2%
[3]
  viability, T/C: 103%
[4]
  viability, T/C: 85.3%
[5]
  viability, T/C: 94%
[6]
  viability, T/C: 65.3%
[7]
  viability, T/C: 98.4%
[8]
  viability, T/C: 97%
[9]
  viability, T/C: 102%
[10]
  viability, T/C: 82.5%
[11]
  viability, T/C: 78.7%
[12]
  viability, T/C: 76.3%
[13]
  viability, T/C: 82.2%
[14]
  viability, T/C: 90.1%
[15]
  viability, T/C: 102%
[16]
  viability, T/C: 81.2%
[17]
  viability, T/C: 87.8%
[18]
  viability, T/C: 72.2%
[19]
  viability, T/C: 85.3%
[20]
  viability, T/C: 103%
[21]
  viability, T/C: 97.1%
[22]
  viability, T/C: 108%
[23]
  viability, T/C: 92.9%
[24]
  viability, T/C: 71.2%
[25]
  viability, T/C: 89.5%
[26]
  viability, T/C: 90.6%
[27]
  viability, T/C: 92%
[28]
  viability, T/C: 100%
[29]
  viability, T/C: 86.5%
[30]
  viability, T/C: 62.2%
[31]
  viability, T/C: 86.4%
[32]
  viability, T/C: 89.5%
[33]
  viability, T/C: 94.6%
[34]
  viability, T/C: 91.2%
[35]
  viability, T/C: 86.2%
[36]
  viability, T/C: 61.4%
